Test results from article PMC12227259, “PubChem BioAssays 1063: A Poorly Exploited Source of New Antileishmanial Compounds” (Journal of Parasitology Research, 2025).
Read-outs that look alike come from different tables or passages of the source.

Assays:
[1] = tested on: L. mexicana intracellular amastigotes; assay: Intracellular amastigote transformation and proliferation assay; type: cell-based, Leishmania (Leishmania) mexicana; conditions: for IC50: Leishmania mexicana, Peritoneal macrophage, read-out: L. mexicana amastigotes (IC50 ± SD)
Description: (§1) Leishmania (Leishmania) amazonensis MHOM/BR/77/LTB0016 reference strain was kindly donated by the Department of Immunology of Fundação Oswaldo Cruz (Fiocruz), Brazil. Leishmania (Leishmania) mexicana MNYC/BZ/62/M379 and L. major MHOM/IL/81/Friedlin reference strains were kindly donated by Paul A. Bates, Division of Biomedical and Life Sciences, Faculty of Health and Medicine, Lancaster University, United Kingdom. Leishmania (Leishmania) infantum MHOM/FR/78/LEM75 was kindly donated by the Department of Parasitology, Faculty of Pharmacy, Universidad Complutense de Madrid, Spain. The promastigotes were cultivated at 26°C in Medium 199 (Gibco, Grand Island, NY, United States) supplemented with 10% heat-inactivated (56°C, 30 min) fetal bovine serum (Gibco, Grand Island, NY, United States) and antibiotics (200 IU penicillin and 200 μg/mL streptomycin). Exponential multiplication of the promastigotes of the four species was attained by passages every 3–4 days. L. mexicana axenic amastigotes were cultured in Schneider's Insect Medium (Sigma-Aldrich, St. Louis, MO, United States) at pH 5.4, supplemented with 20% heat-inactivated fetal bovine serum and antibiotics (as above).
The activity of the test compounds against L. mexicana intracellular amastigotes was carried out by the transformation and proliferation assay as reported elsewhere. Briefly, mouse peritoneal macrophages were obtained by peritoneal lavage of BALB/c mice and cultivated in RPMI 1640 medium supplemented with fetal bovine serum and antibiotics as described above. The cells were seeded in 96-well culture plates at 10^5 cells/well (100 μL) and incubated at 37°C and 5% CO2 for 2 h. Then, macrophages were infected with L. mexicana axenic amastigotes at a rate of three parasites per host cell. After overnight incubation at 37°C and 5% CO2, noninternalized amastigotes and nonadhered macrophages were removed by the elimination of the culture medium and washing with phosphate buffer solution (PBS). Fresh RPMI 1640 medium containing serial dilutions of the test compounds was then added. Amphotericin B was tested in parallel at concentrations from 1.35 to 0.021 μM. Four replicates of each drug concentration were tested in every assay. Plates were incubated for 48 h at 37°C and 5% CO2.

[2] = tested on: L. amazonensis promastigotes; assay: Growth inhibition assay of promastigotes (pNPP); type: cell-based, Leishmania (Leishmania) amazonensis MHOM/BR/77/LTB0016; conditions: Leishmania amazonensis, read-out: Promastigotes (IC50 ± SD) L. amazonensis
Description: as §1
(§2) The growth inhibition assay of promastigotes was conducted according to Bodley et al.'s procedure, with minor modifications. Briefly, 96-well culture plates were seeded with 100 μL culture medium 199 containing 5 × 10^5 log-phase promastigotes and 100 μL of twofold serial dilutions of the test compounds in culture medium. The plates were sealed with parafilm and incubated for 48 h at 26°C. Negative control wells contained promastigotes and DMSO at 0.5%, and positive wells contained promastigotes and 2.7 μM amphotericin B deoxycholate (Gibco, Grand Island, NY, United States). A series of amphotericin B concentrations was also tested in parallel to estimate its IC50 against promastigotes of the three Leishmania strains. After the incubation period, 30 μL of 3 mg/mL p-nitro-phenyl-phosphate (pNPP) (Sigma-Aldrich) in sodium acetate (pH 5.5, Sigma-Aldrich) and 1% Triton X-100 (Sigma-Aldrich) were added to each well. Plates were incubated for other 3 h at 37°C, and 50 μL 0.25 M NaOH (Sigma-Aldrich) was added to change all the produced p-nitro-phenol to its yellow-colored form. Absorbance was then read in a Biotek Epoch microplate reader (Agilent, Santa Clara, CA, United States) at 405 nm. Half-maximal inhibitory concentrations (IC50) were estimated by nonlinear fitting of absorbance versus compound concentration to the sigmoid Emax equation [18]. Each drug concentration was tested in quadruplicate, and the assay was repeated three times.

[3] = tested on: L. mexicana promastigotes; assay: Growth inhibition assay of promastigotes (pNPP); type: cell-based, Leishmania (Leishmania) mexicana MNYC/BZ/62/M379; conditions: Leishmania mexicana, read-out: Promastigotes (IC50 ± SD) L. mexicana
Description: as §1, §2

[4] = tested on: L. infantum promastigotes; assay: Growth inhibition assay of promastigotes (pNPP); type: cell-based, Leishmania (Leishmania) infantum MHOM/FR/78/LEM75; conditions: Leishmania infantum, read-out: Promastigotes (IC50 ± SD) L. infantum
Description: as §1, §2

L. major promastigotes = assay: Growth inhibition assay of promastigotes (pNPP); type: cell-based, L. major MHOM/IL/81/Friedlin; conditions: Leishmania major, read-out: Promastigotes (IC50 ± SD) L. major
Description: as §1, §2

[5] = Cytotoxicity, alamar blue; type: cell-based, BALB/c mice; conditions: BALB/c, read-out: Cytotoxicity (CC50 ± SD)
Protocol: The cytotoxicity of the test compounds was assessed in primary cultures of mouse peritoneal macrophages as reported elsewhere, with minor modifications. Briefly, BALB/c mice were sacrificed by CO2 inhalation, and their peritoneal macrophages were collected by washing the abdominal cavity with cold RPMI 1640 (Gibco, Paisley, Scotland, United Kingdom) culture medium supplemented with antibiotics (sodium penicillin 200 IU and streptomycin 200 μg/mL) and 10% fetal bovine serum. The macrophages were distributed in 96-well culture plates at 10^5 cells/well. After 4 h incubation at 37°C and 5% CO2, the culture medium was replaced by fresh medium containing the test compounds, and the plates were incubated for another 48 h. Afterwards, 20 μL alamar blue (Thermo Fisher Scientific, Oregon, United States) was added per well. Incubation was continued for another 6–8 h at 37°C and 5% CO2 to measure the fluorescence of the reduced dye in a plate reader (excitation: 485 nm, emission: 590, scaling factor: 10/10, Fluoroskan Ascent FL 2.5 plate reader—Thermo Labsystems, Waltham, MA, United States). Fifty percent cytotoxic concentrations (CC50) were estimated by nonlinear fitting to the Emax sigmoid model. Each concentration was tested in triplicate, and each compound was tested in three independent studies.

L. mexicana = assay: Mouse model of cutaneous leishmaniasis, intralesional treatment; type: in vivo, BALB/c mice; conditions: for lesion size versus amphotericin B–treated mice: at 21 days
Protocol: Female, 18–20 g, 8–10 weeks old BALB/c mice were supplied by the laboratory animal breeding facility of the Faculty of Medicine, National Autonomous University of México. They were maintained under controlled environmental conditions (room temperature 22°C–25°C, relative humidity 60%–65%, light cycle 12 h light–12 h dark) and were handled by qualified personnel. At the end of studies, mice were sacrificed by CO2 inhalation. The experimental protocol was approved by the Ethics in Research Committee and the Internal Committee on the Care and Use of Lab Animals (Code CICUAL 004-CIC-2019). All the experiments were conducted in accordance with the Mexican Regulation and the Institute of Laboratory Animal Research Guide for the care and use of laboratory animals.
Mice were infected by intradermal injection in the footpads with 10^7 stationary-phase L. mexicana promastigotes. Two weeks later, mice were randomly allocated in seven groups of 6–7 mice each. Four groups were treated intralesionally every 3 days (five doses) with 20 μL of any of the test compounds at 10 mg/mL in DMSO. […] The dorso-plantar thickness of the rear limbs was weekly measured from the beginning of treatment (14 days postinfection) to 2 weeks after the end of treatment. Feet were measured with a Vernier caliper, and lesion sizes were calculated by subtracting the value of the noninfected limb (left) to that of the infected one (right).
Two weeks after the end of treatment, mice were weighed, sacrificed by CO2 inhalation, and necropsied. The weights of the heart, liver, spleen, and left and right kidneys were determined. Both rear limbs were excised at the level of the tibiotarsal joint and weighed to calculate, by difference, the weight of the lesions. The number of parasites in the lesions was estimated by using the limiting dilution assay technique.

[6] = design: method as in PMID 6576723; conditions: subcutaneous route; cited from earlier work
Trypanosoma cruzi = tested on: Trypanosoma cruzi; design: method as in PMID 27501246; conditions: in vitro and in vivo; cited from earlier work
[7] = tested on: L. donovani axenic amastigotes; design: method as in PMID 27501246; conditions: cited from earlier work
Trypanosoma brucei = tested on: Trypanosoma brucei; design: method as in PMID 27501246; conditions: in vitro and in vivo; cited from earlier work
Leishmania = conditions: cited from earlier work
[8] = intracellular amastigotes in mouse peritoneal macrophages, 48 h, then 72 h transformation at 26°C
[9] = primary mouse peritoneal macrophages
[10] = second mention, p = 0.0057 (Compound 5), p = 0.0030 (Compound 6)

SMILES | IC50 [1, 8] [µM] | IC50 ([2]; 48 h at 26°C, pNPP readout) [µM] | IC50 ([3]; 48 h at 26°C, pNPP readout) [µM] | IC50 ([4]; 48 h at 26°C, pNPP readout) [µM] | IC50 (L. major promastigotes; 48 h at 26°C, pNPP readout) [µM] | CC50 at 48 h [5, 9] [µM] | further results
C[C@@H]1[C@H](O)[C@@H](C)/C=C/C=C/C=C/C=C/C=C/C=C/C=C/[C@H](O[C@@H]2O[C@H](C)[C@@H](O)[C@H](N)[C@@H]2O)C[C@@H]2O[C@](O)(C[C@@H](O)C[C@@H](O)[C@H](O)CC[C@@H](O)C[C@@H](O)CC(=O)O[C@H]1C)C[C@H](O)[C@H]2C(=O)O [AmB, amphotericin B deoxycholate, reference compound] | 0.48 ± 0.02 | 0.031 ± 0.007 | 0.042 ± 0.019 | 0.031 ± 0.002 | 0.031 ± 0.008 | 21 ± 2.1 | Selectivity index [1]: 44
OC(COc1cccc2ccccc12)CN1CCCC1 (centres unmarked) [Compound 1] | 26.3 ± 8.2 | > 50 | > 50 | 23.4 ± 9.2 | 42.5 ± 7.2 | 125 ± 11 | Selectivity index ([1]; CC50/IC50 (in amastigotes)): 5
CCN1CCN(C(=S)c2ccc(OC)cc2)CC1 [Compound 2] | > 50 | > 50 | > 50 | > 50 | > 50 | 127 ± 2.1 | 
COc1ccc2c(c1)sc(=N)n2C [Compound 3] | > 50 | 30.6 ± 11 | > 50 | > 50 | > 50 | > 257 | 
Nc1cnn(Cc2ccccc2F)c1 [Compound 4] | 8.9 ± 1.5 | 23.7 ± 9.9 | 11.1 ± 8.2 | 23.1 ± 7.6 | 11.3 ± 2.2 | 172 ± 6.9 | Selectivity index ([1]; CC50/IC50 (in amastigotes)): 19; number of parasites in lesions versus controls, distribution-free multiple comparison test (L. mexicana; limiting dilution, 2 weeks after the end of treatment, p = 0.0170): statistically significant differences
CC(C)OCCCn1c(=N)c(C(N)=S)cc2c(=O)n3ccccc3nc21 [Compound 5] | 1.1 ± 0.3 | 28.6 ± 14.3 | 27.2 ± 6.2 | 13.8 ± 4.1 | 9.9 ± 1.9 | 172 ± 7.9 | average lesion weight versus amphotericin B treated mice (L. mexicana; 2 weeks after the end of treatment, p = 0.023): statistically lower; lesion size versus amphotericin B–treated mice (L. mexicana; first mention, p = 0.0491): statistically smaller; lesion size versus amphotericin B–treated mice (L. mexicana; [10]): statistically smaller
CN1CCN(Cc2ccccc2Sc2ccccc2)CC1 [Compound 6] | 5.9 ± 2.8 | 3 ± 0.42 | 2.3 ± 0.54 | 2.7 ± 1 | 4.6 ± 2.3 |  | Selectivity index ([1]; CC50/IC50 (in amastigotes)): 10; lesion size versus amphotericin B–treated mice (L. mexicana; [10]): statistically smaller; CC50 ([5]; mouse peritoneal macrophages, 48 h): 60.9 ± 10.7 µM
O=C(Cn1cc([N+](=O)[O-])nc1[N+](=O)[O-])N1CCN(c2ccccc2)CC1 [Compound 7] |  |  |  |  |  |  | IC50 ([1]; in Mus musculus): 0.23 ± 0.04 µM; IC50 ([2]; 48 h): 1.2 ± 0.44 µM; IC50 ([3]; 48 h): 0.76 ± 0.16 µM; IC50 ([4]; 48 h): 5.9 ± 1 µM; IC50 (L. major promastigotes; 48 h): 2.9 ± 0.56 µM; CC50 at 48 h ([5]; mouse peritoneal macrophages): 25.2 ± 1.9 µM
C[S+](C)[O-] [DMSO, dimethyl sulfoxide] |  |  |  |  |  |  | 50% lethal single dose toxicity [6]: 13900 to 20500 mg/kg
Cc1nc(C)c(C(=O)Nc2ccc(F)c(-c3nc4ncc(-c5ccccn5)cn4n3)c2)o1 [GNF 6702] |  |  |  |  |  |  | activity against Trypanosoma cruzi (Trypanosoma cruzi): active; increase in potency on optimization of hit GNF5343 [7]: 400 fold; activity against Trypanosoma brucei (Trypanosoma brucei): active
CCN(CC)C(=S)SSC(=S)N(CC)CC [disulfiram] |  |  |  |  |  |  | in vivo activity in an experimental model of cutaneous leishmaniasis (Leishmania): in vivo activity
